Columns and labels:
hTCEpi cells = assay: Cell migration/proliferation (in vitro wound healing) in hTCEpi cells: compound and second active agent; format: cell-based; conditions: 0.3 μM menadione
Experimental: Determination of cell migration/proliferation in corneal epithelial cells is run to determine cell migration/proliferation in the presence of varying concentrations of a compound of Formula I or II, vitamin K, or nicotinic acid/nicotinamide. Cells are plated with silicone plugs. The cells are then serum starved and pre-treated with varying concentrations of a compound of Formula I or II or a control. The plugs are removed and the cells are treated with 1) EGF, 2) EGF and vitamin K or 3) EGF and nicotinic acid/nicotinamide. Cell migration is quantified from micrographs.
hTCEpi cells were plated with silicone plugs. The cells were then serum starved and pre-treated with varying concentrations of vitamin K3 analog, menadione, for 4 hours and supplemented with the varying concentrations of a compound of Formula I or II for 30 minutes. The plugs were removed. The cells were photographed and then treated with various concentrations of vitamin K, EGF, and/or a compound of Formula I or II. The cells were again photographed and cell migration was quantified from the micrographs. Additional controls run included no compound of Formula I or II and no EGF. All experiments were repeated three times.

[1] = Particle size distribution by laser diffraction light scattering; format: physicochemical; conditions: 5% menadione, HPMC formulation, roller milled; 40° C.
Experimental: Particle size distribution can be analyzed using laser diffraction light scattering, e.g., with a Horiba LA-950 V2. Generic assumptions are made in setting conditions and the refractive index value. The distributions are volume based. Sample density is adjusted to a generic range of percent transmission on the blue LED light source. A small sample cell (filled with water) can be used rather than the flow through cell, to minimize sample quantity.
Particle size distribution was analyzed using laser diffraction light scattering with a Horiba LA-950 V2. Generic assumptions were made in setting conditions and the refractive index value. The distributions were volume based. Sample density was adjusted to a generic range of percent transmission on the blue LED light source. A small sample cell (filled with water) was used rather than the flow through cell, to minimize sample quantity.

corneas of C57/Bl mice = assay: Corneal wound healing in vivo with a second active agent; conditions: 0.3 μM menadione, 48 hours pre-treatment
Experimental: Determination of the effects of a compound of Formula I or II and/or a second active agent on corneal wound healing was determined in mice. Corneas of C57/Bl mice are wounded and then pre-treated with a compound of Formula I or II, followed by addition of EGF, vitamin K, or nicotinic acid/nicotinamide. Wound size and closure are monitored.
Corneas of 8 week old C57/Bl mice were pre-treated with topical administration of vehicle, 0.3 μM menadione, 10 μM of a compound of Formula I or II, 0.3 μM menadione and 10 μM of a compound of Formula I or II 48 hours before the corneas were wounded (1.5 mm superficial epithelial wound). Wound size was monitored by fluorescein staining and fluorescent photography. Wound closure was monitored over the course of 40 hours.

EGFR [2] = target: T1, EGFR (Homo sapiens, UniProt P00533); assay: EGFR tyrosine phosphorylation assay in hTCEpi cells with a second active agent; format: cell-based; conditions: vitamin K 50 μM, nicotinic acid 10 μM or nicotinamide 10 μM, 4 hours pre-treatment, EGF 50 ng/ml
T1 construct: endogenous in cells; host or cells: hTCEpi (immortalized corneal epithelial cells)
Experimental: An EGFR tyrosine assay in corneal epithelial cells is run to determine if Vitamin K or nicotinic acid/nicotinamide can overcome inhibition of EGFR and if there is an increase in EGFR activity. […] Cells are harvested cells and immunoblotted for determination of phosphorylated EGFR (tyrosine 1068 and tyrosine 1045) and total EGFR concentration which was used to determine receptor activity (IC50).
The cells were then incubated with EGF (50 ng/ml) for 15 minutes. Cells were harvested and cell lysates were immunoblotted for determination of phosphorylated EGFR (tyrosine 1068 and tyrosine 1045) and total EGFR concentration.

[3] = Ocular pharmacokinetics of formulations, Example 20-5; format: in vivo, Dutch Belted rabbits
Experimental: The study design (Table 19-1) consisted of forty-seven (47) Dutch Belted rabbits, each receiving a 30 μL bilateral topical ocular dose. Various suspension formulations of the present application were evaluated and compared against a cyclodextrin-based eye drops solution (Control Group 1, Table 19-1). Formula II or Compound-I was used in the test suspensions as well as the Eye Drops solution.
(§1) Ocular sampling occurred one hour following the first daily dose on Day 5 for all groups. Whole blood samples using K2EDTA as an anticoagulant were collected from all animals on Day 5, 1 hour post dose. The whole blood was placed on ice until samples were spun in a centrifuge to separate the plasma. Aqueous humor, conjunctiva, cornea, central retina, peripheral retina, central choroid, and peripheral choroid samples were collected following necropsy. Samples were then frozen at −70° C. or lower. For all Groups 1-15, plasma, central retina, central choroid, and cornea samples were assayed. For Group 5 only, samples were analyzed for Vitamin K3.
An analytical method for the analysis of Vitamin K3 was determined in plasma, central retina, central choroid, and cornea samples from Group 5 animals. A calibration curve prepared in control vitreous humor was used to determine the concentration of Vitamin K3. Internal standard (IS) responses were inconsistent for the central choroid and plasma samples. Thus, positive plasma results were likely due to the reduced IS response.

EGFR [4] = target: T1, EGFR; assay: Mechanism by which menadione enhances EGFR activity (hTCEpi immunoblot); format: cell-based; design: Kinetics of EGFR degradation: dose or concentration left out as unconfirmed
Experimental: […] Cells were then incubated with 8.0 nM (50 ng/ml) EGF for 0-3 hours. The cells were lysed and the lysates were resolved by SDS-PAGE, and immunoblotted for phosphorylated EGFR (pY1068), total EGFR, or α-tubulin.

[5] = Ocular pharmacokinetics of formulations, Example 20-3; format: in vivo, Dutch Belted rabbits; conditions: 1.0 μM Vit K3 suspension, 30 μL/eye/dose QD for 4 Days, 1 hr post dose on Day 5; for Vitamin K3 concentration in Cornea: LLOQ = 2.91 μM; for Vitamin K3 concentration in Central Choroid: LLOQ = 43.6 μM
Experimental: The study design (Table 17-1) consisted of thirty-nine (39) Dutch Belted rabbits, each receiving a 30 μL bilateral topical ocular dose. Various suspension formulations of the present application were evaluated and compared against two control formulations: a) a cyclodextrin-based eye drops solution (Control Group 13, Table 17-1), and b) a pilot suspension formulation used in previous rabbit pharmacokinetic studies, (Group 10, Table 17-1). Formula II or Compound-I was used in the test suspensions, whereas the Eye Drops solution formulation is derived with the Compound-I.
as §1, with “1-13,” for “1-15,”, “assayed.” for “assayed. For Group 5 only, samples were analyzed for Vitamin K3.”
Additionally, Vitamin K3 concentrations were determined in plasma, central retina, central choroid, and cornea samples for animals from Groups 8 and 9. A calibration curve prepared in control matrix was used to determine the concentration of Vitamin K3.

[6] = Group 8: Formula II 4 mg/mL, HPMC
[7] = Group 9: Formula II 4 mg/mL, Pluronic

T1 sequence (P00533 25-1210): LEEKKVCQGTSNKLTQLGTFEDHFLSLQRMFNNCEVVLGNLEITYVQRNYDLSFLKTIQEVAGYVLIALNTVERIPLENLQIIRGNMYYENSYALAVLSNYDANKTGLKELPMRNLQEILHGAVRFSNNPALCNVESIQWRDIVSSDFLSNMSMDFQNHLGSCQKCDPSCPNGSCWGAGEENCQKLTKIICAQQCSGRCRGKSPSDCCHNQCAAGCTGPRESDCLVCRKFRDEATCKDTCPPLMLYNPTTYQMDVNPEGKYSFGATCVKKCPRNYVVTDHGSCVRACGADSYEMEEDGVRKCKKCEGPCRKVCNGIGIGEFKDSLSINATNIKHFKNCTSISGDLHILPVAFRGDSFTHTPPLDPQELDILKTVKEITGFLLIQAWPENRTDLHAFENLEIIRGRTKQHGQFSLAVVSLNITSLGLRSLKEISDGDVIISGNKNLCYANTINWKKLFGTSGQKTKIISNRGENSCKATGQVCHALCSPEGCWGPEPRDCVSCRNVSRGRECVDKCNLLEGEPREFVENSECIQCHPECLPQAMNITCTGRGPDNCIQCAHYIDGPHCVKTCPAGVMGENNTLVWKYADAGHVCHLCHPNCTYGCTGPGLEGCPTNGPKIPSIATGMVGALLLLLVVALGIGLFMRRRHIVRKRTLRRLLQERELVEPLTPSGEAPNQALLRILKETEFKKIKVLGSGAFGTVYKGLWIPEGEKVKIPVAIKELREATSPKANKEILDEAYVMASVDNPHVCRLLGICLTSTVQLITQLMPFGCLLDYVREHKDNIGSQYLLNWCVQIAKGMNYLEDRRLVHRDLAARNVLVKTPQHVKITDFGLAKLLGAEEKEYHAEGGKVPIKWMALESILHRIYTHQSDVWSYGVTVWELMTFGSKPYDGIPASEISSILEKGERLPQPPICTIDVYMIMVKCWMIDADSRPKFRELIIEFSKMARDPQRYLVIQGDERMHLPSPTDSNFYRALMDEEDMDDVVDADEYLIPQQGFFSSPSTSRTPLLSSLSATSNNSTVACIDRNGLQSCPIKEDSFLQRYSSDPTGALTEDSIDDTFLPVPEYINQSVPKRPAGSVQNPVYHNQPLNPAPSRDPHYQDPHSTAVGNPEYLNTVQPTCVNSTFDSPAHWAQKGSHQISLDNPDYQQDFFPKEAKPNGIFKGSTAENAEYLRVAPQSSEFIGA

CC1=CC(=O)c2ccccc2C1=O [menadione]
Effect on inhibition of in vitro wound healing by a compound of Formula I or II (hTCEpi cells): reversed
Stability of suspension [1]: short term stability
Effect on corneal epithelial wound healing after pre-treatment with a compound of Formula I or II (10 μM) (corneas of C57/Bl mice): reversed the effects
Effect on Formula I or II compound-mediated EGFR inhibition (EGFR [2]): overcome
Effect on Formula I or II compound-mediated EGFR inhibition (EGFR [2]; listed as vitamin K3): most effectively attenuated
Vitamin K3 in central retina and cornea samples ([3]; Group 5): no quantitative results
Vitamin K3 Cornea concentration ([3]; Group 5: Compound-I 4 mg/mL suspension with Vitamin K3 1 μM, QD for 4 days, 1 hr post dose on Day 5, LLOQ = 0.145 μM): <LLOQ
Vitamin K3 Central Retina concentration ([3]; Group 5: Compound-I 4 mg/mL suspension with Vitamin K3 1 μM, QD for 4 days, 1 hr post dose on Day 5, LLOQ = 0.581 μM): <LLOQ
Basal EGFR phosphorylation and EGFR dephosphorylation (EGFR [4]; 0.3 or 3.0 μM, 4 hours, 50 ng/ml EGF 0-3 hours): did not change
Kinetics of EGFR degradation (EGFR [4]; menadione): slowed the kinetics of EGFR degradation
Vitamin K3 concentration in Cornea [5, 6]: <LLOQ
Vitamin K3 concentration in Central Choroid [5, 6]: <LLOQ
Vitamin K3 concentration in Plasma ([5]; Group 8: Formula II 4 mg/mL, HPMC, average n = 3, LLOQ = 0.291 μM): <LLOQ
Vitamin K3 concentration in Cornea [5, 7]: <LLOQ
Vitamin K3 concentration in Central Retina ([5]; Group 9: Formula II 4 mg/mL, Pluronic, LLOQ = 11.6 μM): <LLOQ
Vitamin K3 concentration in Central Choroid [5, 7]: <LLOQ

From patent US10183014B2, “Ocular formulations for drug-delivery and protection of the anterior segment of the eye” (PanOptica, Inc., priority 2014, dated 2019)
